# Source: PMC8062851, “2-Methoxyestradiol and its derivatives inhibit store-operated Ca^2+ entry in T cells: Identification of a new and potent inhibitor” (Biochimica et Biophysica Acta. Molecular Cell Research, 2021)
# “Also recorded” adds a separate entry of the source.
# Experiments:
# KV1.3 channels = test system: KV1.3 channels; set-up: method as in patent WO2005/009954A2 (compound 66); conditions: ref patent WO2005/009954A2 (compound 66); cited from earlier work
# IP3 receptors = assay: IP3-evoked Ca2+ release in permeabilized Jurkat T cells; assay type: cell-based, human; conditions: 2 μM IP3
# Procedure: (§1) 3 ∗ 10^7 Jurkat T-lymphocytes per measurement were centrifuged at 450 ×g for 5 min at room temperature. The pellet was rinsed twice, each time using 10 ml permeabilization buffer 1 (120 mM KCl, 10 mM NaCl, 1.2 mM MgCl2, 0.533 mM CaCl2, 1 mM EGTA and 10 mM HEPES, pH 7.2 (KOH), sterile filtered). Subsequently, the pellet was resuspended in 2 ml permeabilization buffer 1 containing 80 μg/ml saponin (Fluka) and the cells were incubated for 10 min at 37 °C. Subsequently, the cells were centrifuged at 450 ×g for 5 min at room temperature and the cell pellet was washed once in 10 ml permeabilization buffer 2 (120 mM KCl, 10 mM NaCl, 1.2 mM MgCl2 and 10 mM HEPES, pH 7.2 (KOH), sterile filtered). Finally, the cells were taken up in 1 ml permeabilization buffer 2, placed into a cuvette and measured at the fluorescence spectrophotometer. Before the start of the measurement, 0.5 μl of 1 mM Fura2 free acid (dissolved in pure water, final concentration: 0.5 μM), 5 μl of 5 mg/ml creatinkinase (dissolved in permeabilization buffer 2, final concentration: 25 μg/ml, 20 U/ml, Roche) and 10 μl of 2 M creatin phosphate (dissolved in permeabilization buffer 2, final concentration: 20 mM, Calbiochem) were added. Fura2 was used to measure the Ca^2+ concentration and creatinkinase and creatin phosphate were used as ATP-regenerating system. The measurement was controlled by FL Solutions (Version 4.1, Hitachi High-Technologies Corporation). Fura2 was alternatively excited every 2 s at 340 ± 5 nm and 380 ± 5 nm, each 400 ms apart. Fluorescence intensity was measured at an emission wavelength of 495 ± 5 nm for both excitation wavelengths. […] Ca^2+ concentrations were calculated according to Grynkiewicz et al. as described earlier in Section 2.4.
# (§2) As a quantitative read-out for inhibition of IP3 receptors, the peak [Ca^2+] after IP3 addition was subtracted from the mean [Ca^2+] between 25 and 75 s before IP3 addition (dPeak). […] The rate constant K of the fitted data was used as a quantitative read-out for SERCA pump activity and its inhibition.
# ORAI1 = target: T1, ORAI1 (Homo sapiens, UniProt Q96D31); assay: Live cell Ca2+ imaging of G-GECO1.2-ORAI1 transfected Jurkat T cells; assay type: cell-based; conditions: 10 μM
# T1 construct: host or cells: Jurkat T-lymphocytes (electroporation)
# Procedure: 12.5 ∗ 10^6 Jurkat T–lymphocytes were pelleted at 400 to 450 ×g for 5 min at room temperature and pellets were dissolved in 500 μl RPMI 1640 medium (Gibco) without phenol red containing L-glutamine, supplemented with 7.5% (v/v) NCS. 30 μg plasmid-DNA (G-GECO1.2-ORAI1) was transferred into a 4 mm electroporation cuvette (Biozym, Austria) and the Jurkat T-lymphocytes were added. G-GECO1.2-ORAI1 was a gift from Michael Cahalan, USA (Addgene plasmid # 73562). After an incubation of 5 min at 37 °C, cells were electroporated with 960 μF and 240 V (τ: […]). […]
# 17 to 22 h after electroporation, 5 ∗ 10^4 cells were pelleted at 400–450 ×g for 5 min at room temperature and cell pellets were dissolved in 50 μl nominal Ca^2+ free buffer. […] The fluorophore was excited at 488 nm every 2 s for 30 min and fluorescence was measured at 520 nm using Volocity (Version 6.3, Perkin Elmer).
# Using ImageJ (Version 1.51 k, National Institutes of Health, USA) the pictures were analyzed for mean fluorescence in the outer ring of Jurkat T-lymphocytes employing ring-shaped regions of interest (ROIs). […] The mean background fluorescence values were subtracted from the signal in every image. For quantitative analysis, fluorescence intensities were normalized to the first fluorescence intensity (F/F0).
# TMBP cells = assay: In vitro activation of TMBP cells by MBP, cytokine mRNA by qPCR; assay type: cell-based, rat; conditions: TMBP cells + MBP; 6 h; qPCR; STX564 vs Synta66
# Procedure: Myelin basic protein (MBP)-reactive CD4^+ T cells retrovirally transduced to express enhanced GFP (TMBP cells) were established as previously reported. In brief, 6–8 week old female Lewis rats were immunized subcutaneously with 150 μl of emulsion consisting of equal parts of MBP (stock concentration: 1 mg/ml) and complete Freund's adjuvant containing heat-inactivated Mycobacterium tuberculosis extract (Difco; stock concentration: 2 mg/ml). Draining lymph nodes were harvested and passed through a cell strainer (40 μm) 9–10 days after immunization. The cell suspension was co-cultured with GP + E86 packaging cell lines producing replication-deficient retroviruses in the presence of 10 μg/ml MBP. Murine IL-2 was added to the culture for T cell expansion from day 2–4 after stimulation. The cell lines underwent 3–4 cycles of stimulation before being used for in vitro and in vivo experiments. […] Upon stimulation, they produced interferon-γ and IL-17.
# In vitro activation assays were performed in 96-well plates. […]. TMBP cell activation on mRNA level was determined using qPCR and on surface protein level using surface marker staining and subsequent flow cytometry analysis.
# Total RNA was isolated using the standard TRIzol method. cDNA was synthesized using the RevertAid First Strand cDNA Synthesis Kit (Thermo Fisher Scientific). Quantitative PCR (qPCR) was performed using the StepOnePlus™ Real-Time PCR System (Applied Biosystems), as previously described [[23], [24], [25]]. Rat TMBP cell data were obtained from three to four independent duplicate measurements. β-actin served as housekeeping gene. Human PBMC data were obtained from two independent healthy donors and duplicate measurements (representative data of one donor are shown). HPRT served as housekeeping gene. For all probes (TaqMan), a combination of 5′-FAM and 3′-TAMRA quencher was used as described.
# SERCA pumps = assay: SERCA activity (ATP-induced Ca2+ reuptake) in permeabilized Jurkat T cells; assay type: cell-based, human
# Procedure: as §1, §2
# [1] = test system: alpha-dendrotoxin sensitive KV channels, likely KV1.1, KV1.2 and/or KV1.6; conditions: 10 μM; ref Di Sabatino et al. [36]; cited from earlier work
# T1 sequence (Q96D31 whole entry): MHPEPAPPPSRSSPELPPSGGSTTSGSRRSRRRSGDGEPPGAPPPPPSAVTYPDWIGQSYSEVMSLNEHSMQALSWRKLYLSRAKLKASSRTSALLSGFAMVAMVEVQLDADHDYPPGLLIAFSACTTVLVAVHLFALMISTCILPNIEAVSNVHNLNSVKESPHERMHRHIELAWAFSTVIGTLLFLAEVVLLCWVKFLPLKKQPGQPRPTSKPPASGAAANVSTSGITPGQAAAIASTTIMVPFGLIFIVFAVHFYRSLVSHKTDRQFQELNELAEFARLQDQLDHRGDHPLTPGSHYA
smiles,measurement,setting,value
COc1ccc(OC)c(-c2ccc(NC(=O)c3ccncc3F)cc2)c1 [Synta66],inhibition of KV1.3 channels,KV1.3 channels,inhibits KV1.3 channels
same,effect on IP3-evoked Ca2+ release,IP3 receptors,Neither STX564 nor Synta66 affected IP3-evoked Ca^2+ release significantly; also recorded: did not inhibit the Ca^2+ release by IP3
same,SOCE by ORAI1 (G-GECO1.2-ORAI1 fluorescence),ORAI1,almost completely diminished
same,concentration at which interferon-γ expression was significantly antagonized,TMBP cells,≥ 10 µM
same,effect on SERCA activity (initial slope of [Ca2+] upon ATP addition),SERCA pumps,"Neither STX564, Synta66 nor vehicle DMSO affected ATP-induced Ca^2+ reuptake by SERCA pumps; also recorded: neither STX564 nor Synta66 showed any effect"
same,inhibition of alpha-dendrotoxin sensitive KV channels,[1],< 10%
